From PMC9412362, “Design, Synthesis, and Characterization of Novel Coordination Compounds of Benzimidazole Derivatives with Cadmium” (Pharmaceutics, 2022) come the findings set out here.

One data set has as its system P. aeruginosa ATCC 9027. The data set can be described thus: MIC, micro-dilution broth method. It counts as cell-based, Pseudomonas aeruginosa. The method, then:
(§1) Samples of complexes (about 20 mg) were digested in a concentrated mixture of 36% HCl (1 mL) and 65% HNO3 (6 mL). The contents of Cd (II) in the solid complexes were determined with an F-AAS spectrometer (Analytik Jena, contraAA 300, Jena, Germany) with a continuous source of light and using an air/acetylene flame (Analytik Jena, contraAA 300). Absorbances were measured at the analytical spectral lines at 228.8 nm for Cd (II). The limit of quantification was 0.004 mg/L for Cd (II). The solid samples were decomposed using an Anton Paar Multiwave 3000 (Graz, Austria) closed-system instrument. Mineralization was carried out for 45 min at 240 °C under a pressure of 60 bar. The contents of carbon, hydrogen, and nitrogen were determined with an instrument from Vario Micro Company Elementar Analysensysteme GmbH (Langenselbold, Germany). FTIR spectra were recorded with an IR Tracer-100 Schimadzu Spectrometer (4000–600 cm^−1 with an accuracy of recording of 1 cm^−1, Kyoto, Japan) using KBr pellets. The thermal analyses were carried out with a Netzsch STA 449 F1 Jupiter thermoanalyzer (Netzsch-Geratebau GmbH, Selb, Germany) coupled with a Netzsch Aeolos Quadro QMS 403 mass spectrometer (Netzsch-Geratebau GmbH, Selb, Germany). The samples were heated up to 1000 °C in corundum crucibles with a heating rate of 10 °C/min in an atmosphere of synthetic air (20% O2, 80% N2). The cytotoxic effects of the compounds were evaluated using glioblastoma (T98G), neuroblastoma (SK-N-AS), and lung adenocarcinoma (A549) cell lines and normal human skin fibroblasts (CCD-1059Sk). T98G and SK-N-AS cells were cultured in high-glucose DMEM and A549 cells were cultured in DMEM/F12, while CCD-1059Sk cells were cultured in MEM. All media were supplemented with 10% (FBS), 100 U/mL of penicillin, and […] of streptomycin (PenStrep). Cells were incubated at 37 °C in a humidified atmosphere of 5% CO2. Stock solutions were prepared by dissolving the compounds in sterile dimethyl sulfoxide (DMSO) to obtain a concentration of 50 mg/mL. The cells were seeded into sterile 96-well plates (Nunc) at a density of 1 × 10^5 cells/mL. After 24 h of incubation, the medium was removed from each well, and then the cells were incubated for the next 24 h with different concentrations of the tested compounds (1–100 µg/mL) in their respective media containing 2% FBS. The cytotoxicity of the compounds was evaluated using an MTT assay, which was based on the conversion of 3-(4,5-dimethylthiazol-2-yl)-2,5-diphenyltetrazolium bromide (MTT) into dark-blue formazan crystals. Briefly, after 24 h of incubation of the cells with varying concentrations of the tested compounds, all culture media were removed from the plates. The cells were washed with PBS, and then 100 µL of medium containing 10% MTT solution (5 mg/mL) was added to each well. After 3 h of incubation, 100 µL (per well) of 10% SDS buffer solution was added to solubilize the formazan crystals. After overnight incubation, the absorbance was measured at 570 nm using a microplate reader (Epoch, BioTek Instruments). Experiments were repeated twice, and the measurements in each experiment were run in triplicate. The viability of the investigated cells was expressed as the percentage of the viability of the untreated cells, and the results were transformed into IC50 values (expressed as mean ± SD). The complexes were screened for antibacterial and antifungal activity by using the micro-dilution broth method with Mueller–Hinton broth for the growth of bacteria or Mueller–Hinton broth with 2% glucose for the growth of fungi. […]

Data set [1] relates to C. parapsilosis ATCC 22019. The data set can be described thus: MIC, micro-dilution broth method. It counts as cell-based, Candida parapsilosis. The conditions noted are these: Yeasts, micro-dilution broth with 2% glucose. On the procedure:
as §1
(Broth dilution looks for growth in wells or tubes with falling amounts of substance.)

The next data set has as its system P. mirabilis ATCC 12453. The data set can be described thus: MIC, micro-dilution broth method. The format is cell-based, Proteus mirabilis. On the procedure:
as §1

The subject of another data set is M. luteus ATCC 10240. The data set can be described thus: MIC, micro-dilution broth method. The conditions noted are these: Gram-positive bacteria, micro-dilution broth. The format is cell-based, Micrococcus luteus. The method, then: as §1
In a further data set the test system is C. glabrata ATCC 2091. The data set can be described thus: MIC, micro-dilution broth method. It counts as cell-based. On the procedure: as §1
Data set [2] can be described thus: Solubility in culture medium (MTT assay). It counts as physicochemical. The note with it: culture medium of the MTT assay. On the procedure: Samples of complexes (about 20 mg) were digested in a concentrated mixture of 36% HCl (1 mL) and 65% HNO3 (6 mL). The contents of Cd (II) in the solid complexes were determined with an F-AAS spectrometer (Analytik Jena, contraAA 300, Jena, Germany) with a continuous source of light and using an air/acetylene flame (Analytik Jena, contraAA 300). Absorbances were measured at the analytical spectral lines at 228.8 nm for Cd (II). The limit of quantification was 0.004 mg/L for Cd (II). The solid samples were decomposed using an Anton Paar Multiwave 3000 (Graz, Austria) closed-system instrument. Mineralization was carried out for 45 min at 240 °C under a pressure of 60 bar. The contents of carbon, hydrogen, and nitrogen were determined with an instrument from Vario Micro Company Elementar Analysensysteme GmbH (Langenselbold, Germany). FTIR spectra were recorded with an IR Tracer-100 Schimadzu Spectrometer (4000–600 cm^−1 with an accuracy of recording of 1 cm^−1, Kyoto, Japan) using KBr pellets. […] The cytotoxic effects of the compounds were evaluated using glioblastoma (T98G), neuroblastoma (SK-N-AS), and lung adenocarcinoma (A549) cell lines and normal human skin fibroblasts (CCD-1059Sk). […] The cytotoxicity of the compounds was evaluated using an MTT assay, which was based on the conversion of 3-(4,5-dimethylthiazol-2-yl)-2,5-diphenyltetrazolium bromide (MTT) into dark-blue formazan crystals. […]

The test system of the next data set is E. faecalis ATCC 29212. The data set can be described thus: MIC, micro-dilution broth method. The note with it: Gram-positive bacteria, micro-dilution broth. It counts as cell-based, Enterococcus faecalis. On the procedure: as §1
A further data set has as its system C. albicans ATCC 102231. Briefly: MIC, micro-dilution broth method. The format is cell-based, Candida albicans. On the procedure:
as §1

Another data set concerns E. coli ATCC 25922. Briefly: MIC, micro-dilution broth method. It counts as cell-based, Escherichia coli. The method, then:
as §1

For data set [3], the system named is S. epidermidis ATCC 12228. The data set can be described thus: MIC, micro-dilution broth method. It counts as cell-based, Staphylococcus epidermidis. The conditions noted are these: Gram-positive bacteria, micro-dilution broth. On the procedure: as §1
The subject of a further data set is B. cereus ATCC 10876. Briefly: MIC, micro-dilution broth method. It counts as cell-based, Bacillus cereus. The conditions noted are these: Gram-positive bacteria, micro-dilution broth. The method, then: as §1
A further data set has as its system S. aureus ATCC 25923. The data set can be described thus: MIC, micro-dilution broth method. It counts as cell-based, Staphylococcus aureus. The conditions noted are these: Gram-positive bacteria, micro-dilution broth. The method, then:
as §1

The test system of the next data set is K. pneumoniae ATCC 13883. Briefly: MIC, micro-dilution broth method. The format is cell-based, Klebsiella pneumoniae. On the procedure:
as §1

Another data set has as its system B. subtilis ATCC 6633. Briefly: MIC, micro-dilution broth method. The note with it: Gram-positive bacteria, micro-dilution broth. It counts as cell-based, Bacillus subtilis. The method, then:
as §1

For data set [4], the system named is S. typhimurium ATCC 14028. Briefly: MIC, micro-dilution broth method. It counts as cell-based, Salmonella Typhimurium. The conditions noted are these: Gram-negative bacteria. The method, then: as §1
The subject of another data set is CCD-1059Sk cells. The data set can be described thus: MTT cytotoxicity assay, normal human skin fibroblasts CCD-1059Sk. It counts as cell-based. The note with it: normal human fibroblasts CCD-1059Sk, MTT assay after 24 h of incubation; read-out: IC50 ± SD, CCD-1059-Sk. The method, then: as §1
For orientation: Formazan colour is commonly taken as a measure of viable cells.

The subject of a further data set is A549 cells. Briefly: MTT cytotoxicity assay, lung adenocarcinoma A549. The format is cell-based, human. The conditions noted are these: Homo sapiens; lung carcinoma A549, MTT assay after 24 h of incubation; read-out: IC50 ± SD, A549. The method, then: as §1
Another data set relates to SK-N-AS cells. The data set can be described thus: MTT cytotoxicity assay, neuroblastoma SK-N-AS. The format is cell-based, human. The conditions noted are these: Homo sapiens, SK-N-AS, 24 h, MTT assay after 24 h of incubation, read-out: IC50 ± SD, SK-N-AS. On the procedure: as §1
The next data set has as its system T98G cells. The data set can be described thus: MTT cytotoxicity assay, glioblastoma T98G. It counts as cell-based, human. The note with it: Homo sapiens, MTT assay after 24 h of incubation, read-out: IC50 ± SD, T98G. The method, then:
as §1

Setting [5] is: Yeasts, micro-dilution broth with 2% glucose.

Usually MIC stands for the smallest concentration in the dilution series that meets the test's criterion for growth inhibition. As usually defined, the IC50 is the point on the concentration scale where inhibition reaches its midpoint.

Converted amounts (≈) assume the structure as drawn.

Regarding `O.[Cl][Cd][Cl].c1cc(-c2nc3ccncc3[nH]2)ccn1` [C1, Cd(L1)Cl2∙H2O], the “MIC, P. aeruginosa ATCC 9027” value against P. aeruginosa ATCC 9027 (Gram-negative bacteria) is over 1000 µg/mL. Also, the “MIC, C. parapsilosis ATCC 22019” value in data set [1] stood at 15.6 µg/mL. Further, in the data set on P. mirabilis ATCC 12453 (Gram-negative bacteria), the “MIC, P. mirabilis ATCC 12453” value was determined as 1000 µg/mL. For the same compound, the “MIC, M. luteus ATCC 10240” value against M. luteus ATCC 10240 came out at 7.8 µg/mL. For the same compound, in the data set with C. glabrata ATCC 2091 (setting [5]), the “MIC, C. glabrata ATCC 2091” value turned out to be 62.5 µg/mL. The “solubility in culture medium” value in data set [2] is listed as “Not determined due to low solubility in culture medium”. The “MIC, E. faecalis ATCC 29212” value against E. faecalis ATCC 29212 came to 125 µg/mL. Besides, the “MIC, C. albicans ATCC 102231” value against C. albicans ATCC 102231 (setting [5]) amounted to 500 µg/mL. For the same compound, the “MIC, E. coli ATCC 25922” value in the data set with E. coli ATCC 25922 (Gram-negative bacteria) was found to be 1000 µg/mL. For the same compound, in [3], the “MIC, S. epidermidis ATCC 12228” value came to 250 µg/mL. In addition, the “MIC, B. cereus ATCC 10876” value against B. cereus ATCC 10876 amounted to 500 µg/mL. In the data set with S. aureus ATCC 25923, the “MIC, S. aureus ATCC 25923” value stood at 500 µg/mL. Further, the “MIC, K. pneumoniae ATCC 13883” value in the data set on K. pneumoniae ATCC 13883 (Gram-negative bacteria) was determined as 1000 µg/mL. For the same compound, the “MIC, B. subtilis ATCC 6633” value with B. subtilis ATCC 6633 was 7.8 µg/mL. The “MIC, S. typhimurium ATCC 14028” value in data set [4] came to 1000 µg/mL.

In the case of `c1cncc(-c2nc3cccnc3[nH]2)c1` [L3], the MIC was over 1000 µg/mL in the data set on P. aeruginosa ATCC 9027 (Pseudomonas aeruginosa, ATCC9027, Gram-negative bacteria); 1000 µg/mL (≈ 5.1 mM) in data set [1] (Lodderomyces parapsilosis, ATCC22019); over 1000 µg/mL in the data set on P. mirabilis ATCC 12453 (Proteus mirabilis, ATCC12453, Gram-negative bacteria); 500 µg/mL (≈ 2.55 mM) with M. luteus ATCC 10240 (Micrococcus luteus, ATCC10240, read-out: MIC, M. luteus ATCC 10240); over 1000 µg/mL in the data set on C. glabrata ATCC 2091 (Nakaseomyces glabratus, ATCC2091, read-out: MIC, C. glabrata ATCC 2091); over 1000 µg/mL with E. faecalis ATCC 29212 (Enterococcus faecalis, ATCC29212, read-out: MIC, E. faecalis ATCC 29212). Also, the minimal inhibitory concentration (MIC) in the data set on C. albicans ATCC 102231 (Candida albicans, ATCC102231, read-out: MIC, C. albicans ATCC 102231) is over 1000 µg/mL; in the data set on E. coli ATCC 25922 (Escherichia coli, ATCC25922, Gram-negative bacteria) it was over 1000 µg/mL; in data set [3] (Staphylococcus epidermidis, ATCC12228, read-out: MIC, S. epidermidis ATCC 12228) it was over 1000 µg/mL; in the data set with B. cereus ATCC 10876 (Bacillus cereus, ATCC10876, read-out: MIC, B. cereus ATCC 10876) it was 1000 µg/mL (≈ 5.1 mM); with S. aureus ATCC 25923 (Staphylococcus aureus, ATCC25923, read-out: MIC, S. aureus ATCC 25923), over 1000 µg/mL; in the data set with K. pneumoniae ATCC 13883 (Klebsiella pneumoniae, ATCC13883, Gram-negative bacteria), over 1000 µg/mL. For the same compound, the minimal inhibitory concentration (MIC) in the data set on B. subtilis ATCC 6633 (Bacillus subtilis, ATCC6633, read-out: MIC, B. subtilis ATCC 6633) is 1000 µg/mL (≈ 5.1 mM); in [4] (Salmonella enterica), over 1000 µg/mL. Besides, the IC50 with CCD-1059Sk cells, in the data set on A549 cells, in the data set on SK-N-AS cells and in the data set on T98G cells was over 509 µM in each case.
